From patent US20060020110A1, “Synthetic peptides that bind to the hepatitis B virus core and E antigens” (priority 2000, published 2006)

Assays:
HBcAg [1] = target: T1, HBcAg (Hepatitis B virus genotype D subtype ayw, UniProt P03146); conditions: for OD at 490 nm, bound peptide SEQ. ID. No. 74: HBcAg coated 1 μg/ml, 5 μg SEQ. ID. No. 74 + 5 μg HBcAg peptide, no inhibitor OD 1.454; for Std. Deviation from the mean: deviation of the OD from the mean OD of all peptides; for Effect on binding of peptide SEQ. ID. No. 74 to HBcAg (in words): 5 μg HBcAg peptide + 5 μg SEQ. ID. No. 74, triplicate
T1 sequence (P03146 whole entry, the tested form may be a part): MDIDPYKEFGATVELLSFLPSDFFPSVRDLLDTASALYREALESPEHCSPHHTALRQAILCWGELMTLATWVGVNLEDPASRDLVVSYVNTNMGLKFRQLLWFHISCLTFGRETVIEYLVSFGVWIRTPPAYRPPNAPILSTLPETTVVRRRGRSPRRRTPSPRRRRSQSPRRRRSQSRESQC
Experimental: In this experiment, microplates were coated overnight with 1 μg/ml HBcAg and, subsequently, a 100 μl mixture containing 5 μg of the peptide […] […] The HBcAg peptides were approximately 20 amino acids in length and corresponded to regions of HBcAg spanning amino acid residues 11-183. The experiment was performed in triplicate.

HBcAg [2] = target: T1, HBcAg; conditions: for OD at 490 nm, HBcAg binding to support-bound amino terminal deletion peptides: HBcAg added at 5 μg/ml; for OD at 405 nm to indicated antigen: HBcAg 0.2 μg/well / OD at 405 nm to indicated antigen: HBcAg 2 μg/well: support-bound peptide
Excerpt: (§1) One approach to rational drug design involves sequential amino acid deletion of a known binding partner starting from either the amino or carboxy termini. Amino-terminal deletions of the binding partners of SEQ. ID. Nos. 5 and 17 were made and these peptide fragments were joined to a support and analyzed for the ability to bind HBcAg. […] ID. […] The amino-terminal deletions of the peptide of SEQ. ID. […] The amino-terminal deletion products of the peptide of SEQ. ID. […] ID.
To determine whether a candidate binding partner bound to HBcAg and/or HbeAg, a multimeric support-based binding assay was performed. Accordingly, synthetic peptides corresponding to the VH and VL domains of the sequenced mAbs were passively adsorbed to 96 well microplates in serial dilutions starting at 200 μg/ml. The peptide coated plates were then incubated with HBcAg and HBeAg serially diluted in PBS-GT. The amount of HBcAg and HBeAg bound by the peptides was then detected using a mAb directed to an epitope common to HBcAg and HBeAg (See Sällberg et al., J General Virology 74:1335-1340 (1993), herein expressly incorportaed by reference in its entirety) diluted 1:3000 in PBS-GT. The quantity of bound mAb was determined by addition by peroxidase labeled rabbit anti-mouse IgG (P260, Dako A S, Denmark). The plates were developed by incubation with ortho-phenylene-diamine (Sigma) and the absorbance at 492 nm was evaluated.
The converse of an aspect of this experiment was also performed. That is, various dilutions of support-bound binding partners (SEQ. ID. Nos. 5, 16, 17, 28, and 29) were contacted with 10 μg/ml of HBcAg and binding was evaluated. ID.

HBcAg [3] = target: T1, HBcAg; conditions: peptide added prior to addition of mAb; uninhibited control mean OD 0.871
Excerpt: as §1
Variations of the characterization assays described above include competitive binding assays. […] Initial experiments were conducted by contacting binding partner to HBcAg prior to introducing the antibody. […] ID. […] ID. […] ID. […] ID. […] ID. […] ID.

mAb specific for HSV gG2 = experiment: gG2 mAb binding to fusion peptide on solid phase
Excerpt: (§2) ID. […] The specificity exchangers provided in SEQ. ID. […] Similarly, the specificity exchangers provided in SEQ. ID.

HBcAg [4] = target: T1, HBcAg
Experimental: To evaluate the efficacy of the specificity exchangers described above, several binding assays using a mAb specific for HSV gG2 were conducted. In one assay, the various specificity exchangers were coated onto microtiterplates and were bound with the mAb specific for HSV gG2. […] ID. […] In another assay, HBcAg was coated onto microtiter plates, specificity exchanger was added (20 μg/well), and the binding of the mAb specific for HSV gG2 was determined. […] ID. […] In another binding assay, HBeAg was coated onto microtiter plates, specificity exchanger was added (20 μg/well), and the binding of the mAb specific for HSV gG2 was determined. […] ID. […] The characterization assays used to evaluate binding partners can also be used and/or modified for the analysis of the specificity exchangers.

HBeAg = target: T2, HBeAg (Hepatitis B virus genotype D subtype ayw, UniProt P0C573); experiment: Redirection of HSV gG2 mAb to HBeAg on solid phase by fusion peptide in solution; assay type: binding
T2 construct: containing nine residues of pre-core and the 150 first residues of HBcAg; made in house
T2 sequence (P0C573 21-179): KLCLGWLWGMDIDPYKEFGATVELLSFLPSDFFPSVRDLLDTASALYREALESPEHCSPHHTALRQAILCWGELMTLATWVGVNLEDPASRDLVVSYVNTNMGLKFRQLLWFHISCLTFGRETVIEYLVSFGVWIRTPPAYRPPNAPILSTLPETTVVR
Excerpt: as §2

[5] = fusion peptide in solution 20 μg/well
[6] = specificity exchanger 20 μg/well

## WVGVNLEDPASRDLVVSYVN [SEQ. ID. No. 102]
HBcAg [1]
  OD at 490 nm, bound peptide SEQ. ID. No. 74: 1.411
  Std. Deviation from the mean: 0.744

## PSPRRRRSQSPRRRRSQSRESQC [SEQ. ID. No. 111]
HBcAg [1]
  OD at 490 nm, bound peptide SEQ. ID. No. 74: 0.678
  Std. Deviation from the mean: −0.734

## QSVSTSSYSYMHWY [SEQ. ID. No. 58]
HBcAg [2]
  OD at 490 nm, HBcAg binding to support-bound amino terminal deletion peptides: 0.282

## ASVKLSCKASGYIFTS [SEQ. ID. No. 42]
HBcAg [2]
  OD at 490 nm, HBcAg binding to support-bound amino terminal deletion peptides: 3.219
HBcAg [3]
  OD at 490 nm, mAb 4-2 binding to HBcAg: 0.207

## ALESPEHCSPHHTALRQAIL [SEQ. ID. No. 99]
HBcAg [1]
  OD at 490 nm, bound peptide SEQ. ID. No. 74: 1.372
  Std. Deviation from the mean: 0.665

## KPGASVKLSCKASGYIFTS [SEQ. ID. No. 39]
HBcAg [2]
  OD at 490 nm, HBcAg binding to support-bound amino terminal deletion peptides: 1.337
HBcAg [3]
  OD at 490 nm, mAb 4-2 binding to HBcAg: 0.202

## SYMHWY [SEQ. ID. No. 65]
HBcAg [2]
  OD at 490 nm, HBcAg binding to support-bound amino terminal deletion peptides: 0.218

## CWGELMTLATWVGVNLEDPA [SEQ. ID. No. 101]
HBcAg [1]
  OD at 490 nm, bound peptide SEQ. ID. No. 74: 1.395
  Std. Deviation from the mean: 0.712

## QLNSLTSEDSAVYYCARGKG (Synthetically prepared amino acid sequence) [Peptide 32]
HBcAg [2]
  OD at 405 nm to indicated antigen: HBcAg 0.2 μg/well: 0.121
  OD at 405 nm to indicated antigen: HBcAg 2 μg/well: 0.528

## CRASQSVSTSSYSYMHWY [SEQ. ID. No. 54]
HBcAg [2]
  OD at 490 nm, HBcAg binding to support-bound amino terminal deletion peptides: 1.415

## KASGYIFTS [SEQ. ID. No. 49]
HBcAg [2]
  OD at 490 nm, HBcAg binding to support-bound amino terminal deletion peptides: 0.237
HBcAg [3]
  OD at 490 nm, mAb 4-2 binding to HBcAg: 0.866

## SRDLVVSYVNTNMGLKFRQL [SEQ. ID. No. 103]
HBcAg [1]
  Effect on binding of peptide SEQ. ID. No. 74 to HBcAg (in words): consistently reduced the binding
  OD at 490 nm, bound peptide SEQ. ID. No. 74: 0.386
  Std. Deviation from the mean: −1.323

## GYIFTS [SEQ. ID. No. 52]
HBcAg [2]
  OD at 490 nm, HBcAg binding to support-bound amino terminal deletion peptides: 0.414
HBcAg [3]
  OD at 490 nm, mAb 4-2 binding to HBcAg: 0.903

## SCRASQSVSTSSYSYMHWY [SEQ. ID. No. 53]
HBcAg [2]
  OD at 490 nm, HBcAg binding to support-bound amino terminal deletion peptides: 1.452

## KLSCKASGYIFTSHRGGPEEF [SEQ. ID. No. 71]
mAb specific for HSV gG2; no addition of fusion peptide in solution
  gG2 mAb binding to indicated antigen on solid phase: fusion peptide: 1.622
mAb specific for HSV gG2; specificity exchanger coated onto microtiterplates
  Binding of mAb specific for HSV gG2 to coated specificity exchanger (in words): appreciably bound the mAb
HBcAg [4]; [5]
  gG2 mAb binding to indicated antigen on solid phase: HBcAg: 0.550
HBcAg [4]; [6]
  Binding to immobilized HBcAg allowing binding of HSV gG2 mAb (in words): appreciably bound the immobilized HBcAg
HBeAg; [5]
  gG2 mAb binding to indicated antigen on solid phase: HBeAg: 0.638
HBeAg; [6]
  Binding to immobilized HBeAg allowing binding of HSV gG2 mAb (in words): appreciably bound the immobilized HBeAg

## SVSTSSYSYMHWY [SEQ. ID. No. 59]
HBcAg [2]
  OD at 490 nm, HBcAg binding to support-bound amino terminal deletion peptides: 0.305

## SGYIFTS [SEQ. ID. No. 51]
HBcAg [2]
  OD at 490 nm, HBcAg binding to support-bound amino terminal deletion peptides: 0.389
HBcAg [3]
  OD at 490 nm, mAb 4-2 binding to HBcAg: 0.887

## YSYMHWY [SEQ. ID. No. 64]
HBcAg [2]
  OD at 490 nm, HBcAg binding to support-bound amino terminal deletion peptides: 0.245

## KLSCKASGYIFTS [SEQ. ID. No. 45]
HBcAg [2]
  OD at 490 nm, HBcAg binding to support-bound amino terminal deletion peptides: 3.694
HBcAg [3]
  OD at 490 nm, mAb 4-2 binding to HBcAg: 0.808

## TNMGLKFRQLLWFHISCLTF [SEQ. ID. No. 104]
HBcAg [1]
  Effect on binding of peptide SEQ. ID. No. 74 to HBcAg (in words): consistently reduced the binding
  OD at 490 nm, bound peptide SEQ. ID. No. 74: 0.058
  Std. Deviation from the mean: −1.984

## ASQSVSTSSYSYMHWY [SEQ. ID. No. 56]
HBcAg [2]
  OD at 490 nm, HBcAg binding to support-bound amino terminal deletion peptides: 0.324

## VKLSCKASGYIFTS [SEQ. ID. No. 44]
HBcAg [2]
  OD at 490 nm, HBcAg binding to support-bound amino terminal deletion peptides: 3.703
HBcAg [3]
  OD at 490 nm, mAb 4-2 binding to HBcAg: 0.152

## YDIDWVRQTPEQGLEWIGWI (Synthetically prepared amino acid sequence) [Peptide 4]
HBcAg [2]
  OD at 405 nm to indicated antigen: HBcAg 0.2 μg/well: 0.202
  OD at 405 nm to indicated antigen: HBcAg 2 μg/well: 0.551
